Measurements taken from paper PMC11241769, “Comprehensive Characterization of Phytochemical Composition, Membrane Permeability, and Antiproliferative Activity of Juglans nigra Polyphenols” (International Journal of Molecular Sciences, 2024).
Like-named read-outs stand apart in the source and are kept apart here.

What was measured:
[1] = tested on: Vero E6 non-tumorous kidney cells; assay: selectivity study: cytostatic activity on non-tumorous Vero E6 cells, Alamar Blue assay; type: cell-based, African green monkey (C. sabaeus)
Procedure: (§1) To determine the selectivity, we assessed the compounds on the Vero E6 non-tumorous kidney cells from African green monkeys (C. sabaeus), and their cytostatic activity was determined (Table 3).
(§2) For the selectivity study, a non-human primate cell culture was used. Vero E6 cells were established from kidney tissue sampled from an African green monkey (C. sabaeus) They originated from a primary culture initiated in March 1962 by Yoshihiro Yasumura at Chiba University in Japan. Vero E6 cells were obtained from the European Collection of Authenticated Cell Cultures (ECACC 85020206) and maintained in DMEM high-glucose (4.5 g/L) medium (Lonza, Basel, Switzerland) containing 10% FBS (Gibco, Thermo Fisher Scientific) and supplemented with 2 mM of L-glutamine (Lonza), 1 mM sodium pyruvate (Merck), and CellCultureGuard (PanReacApplichem, ITW Reagents, Darmstadt, Germany) at 37 °C in a humidified atmosphere of 5% CO2.
(§3) All cell cultures were maintained at 37 °C in a humidified atmosphere with 5% CO2. The cells were grown to confluence and then divided into 96-well tissue culture plates with the initial cell number of 5.0 × 10^3 cells/well. […] Control cells were treated with serum-free medium or DMSO (c = 1.0 v/v %) at the same conditions. After this incubation period, cells were washed twice with serum-free medium, and following that, they were cultured for another 72 h in a 10% serum-containing medium at 37 °C. After that, cell viability was determined using the Alamar Blue assay. Alamar Blue is a non-toxic, resazurin-based dye that living cells reduce to a fluorescent molecule, resorufin [99]. Resazurin sodium salt (Merck, Darmstadt, Germany) was dissolved in PBS at c = 0.15 mg/mL, pH 7.4). A measure of 22 uL of the dye was added to each well and incubated at 37 °C for 3 h until the pink color of the reduced dye appeared. Fluorescence intensity in each well was measured using a Synergy H4 multimode microplate reader (BioTek, Winooski, VT); at λex = 530/30 and λem = 610/10 nm.
(§4) The cytostasis values were expressed in the percentage of untreated control.

[2] = PAMPA-BBB (parallel artificial membrane permeability assay, porcine polar brain lipid extract); type: in vitro ADME; settings: for logPe PAMPA-BBB (n = 9): donor pH 7.4, acceptor pH 7.4, 37 °C, 4 h, n.d. = not detected in the acceptor phase; for Papp at 4 h, 100 µM: pig, PAMPA, pH 7.4, read-out: logPe PAMPA-BBB (n = 9) (converted)
Procedure: (§5) For the PAMPA-BBB test, 5 μL of porcine polar brain lipid extract (PBLE) solution (16.0 mg PBLE + 8.0 mg cholesterol dissolved in 600.0 μL n-dodecane) was applied for each well of the 96-well polycarbonate-based filter donor plates (top plate) (Multiscreen™-IP, MAIPN4510, pore size 0.45 μm; Merck). For the PAMPA-GI assay, the wells of the top plate were coated with 5 μL of the mixture of 16.0 mg phosphatidylcholine + 8.0 mg cholesterol dissolved in 600.0 μL n-dodecane. A measure of 150.0 μL of aliquots of the filtrated donor solutions were placed on the membrane. The 96-well PTFE acceptor plates (bottom plates) (Multiscreen Acceptor Plate, MSSACCEPTOR; Merck), were filled with 300.0 μL buffer solution (0.01 M PBS buffer, pH 7.4). The donor plate was placed upon the acceptor plate, and both plates were incubated together at 37 °C for 4 h in a Heidolph Titramax 1000 Vibrating platform shaker (Heidolph, Schwabach, Germany).
(§6) After incubation, sandwich plates were separated and the concentrations of each compound in the starting donor solution and in the acceptor and donor wells were determined in triplicate by UHPLC-DAD method described above. […] The effective permeability and the membrane retention in the PAMPA-BBB and the PAMPA GI experiments were calculated by Equations (4)–(7), respectively:(4) Pe=−2.303/A(t−τSS)·VA·VD/VA+VD·lg1−VA+VD/1−MR·VD×CAt/CD0 (5) Pe=−2.303/A(t−τSS)·1/1+ra·lg−ra+1+ra/1−MR×CDt/CD0 where Pe is the effective permeability coefficient (cm/s), A is the filter area (0.24 cm^2), VD and VA are the volumes in the donor (0.15 cm^3) and acceptor phases (0.30 cm^3), t is the incubation time (s), τSS is the time (s) to reach steady-state (240 s), CD(t) is the concentration (mol/cm^3) of the compound in the donor phase at time t, CD(0) is the concentration (mol/cm^3) of the compound in the donor phase at time 0, and MR is the estimated membrane retention factor (the estimated mole fraction of solute lost to the membrane), ra is the sink asymmetry ratio (gradient-pH-induced), defined as:(6) ra=VD/VA×Pe(A→D)/Pe(D→A) (7) MR=1−CDt/CD0−VA/VDCAt/CD0
(§7) All experiments were performed in three triplicates on three consecutive days (n = 9), caffeine standard was used as positive, while rutin as negative control. ClogP values were calculated by ChemAxon Marvin 22.3.

[3] = PAMPA-GI (parallel artificial membrane permeability assay, phosphatidylcholine membrane); type: in vitro ADME; settings: for logPe PAMPA-GI (n = 9): donor pH 6.8, acceptor pH 7.4, 37 °C, 4 h, n.d. = not detected in the acceptor phase; for Papp at 4 h, 100 µM: PAMPA, read-out: logPe PAMPA-GI (n = 9) (converted)
Procedure: as §5, §6, §7

[4] = tested on: MDA-MB 231, A2058, HT-29 and Vero E6 cells; assay: in vitro cytostasis, Alamar Blue assay, cell lines taken together; type: cell-based; settings: for effect on the tumor cell lines: tumor cell lines (MDA-MB 231, A2058, HT-29)
Procedure: (§8) For the evaluation of the in vitro antiproliferative activity of the compounds, the cell viability was determined by resazurin (Alamar Blue) assay on MDA-MB 231 breast carcinoma, A2058 melanoma, and HT-29 colon carcinoma cell culture. The control wells were treated only with serum-free medium.
as §1
(§9) The cytostatic effect of the compounds was studied on tumor cell cultures in vitro. MDA-MB-231 human breast adenocarcinoma cells were cultured in DMEM medium supplemented with 10% FBS, 2 mM L-glutamine, penicillin–streptomycin antibiotics mixture (50 IU/mL, and 50 μg/mL, respectively), 1 mM sodium pyruvate, and 1% non-essential amino acid mixture. A2058 human melanoma cells, and HT-29 colorectal carcinoma cells were cultured in RPMI medium supplemented with 10% FBS, 2 mM L-glutamine, and penicillin–streptomycin antibiotics mixture (50 IU/mL and 50 μg/mL, respectively). Cell lines were generous gifts from Dr. József Tóvári (Department of Experimental Pharmacology, National Institute of Oncology, Budapest, Hungary).
as §2, §3, §4

[5] = tested on: MDA-MB-231 human breast adenocarcinoma cells; assay: in vitro cytostatic (antiproliferative) activity, Alamar Blue (resazurin) assay, MDA-MB 231; type: cell-based
Procedure: as §8, §9, §3, §4

[6] = tested on: A2058 human melanoma cells; assay: in vitro cytostatic (antiproliferative) activity, Alamar Blue (resazurin) assay, A2058; type: cell-based
Procedure: as §8, §9, §3, §4

[7] = tested on: HT-29 colorectal carcinoma cells; assay: in vitro cytostatic (antiproliferative) activity, Alamar Blue (resazurin) assay, HT-29; type: cell-based; settings: Homo sapiens
Procedure: as §8, §9, §3, §4

[8] = chemical stability in the aqueous solutions/buffer of the PAMPA experiments (UHPLC-DAD); settings: based on UHPLC-DAD; aqueous donor solutions
Procedure: Quantities of the isolated compounds in the PAMPA experiments (14, 58, 74, 86, 92, 106, 141, and 143) were determined by UHPLC-DAD. The Juglans extracts were analyzed by an ACQUITY UPLC H-Class PLUS System equipped with a quaternary solvent delivery pump (QSM), an auto-sampler manager (FTN), a column compartment (CM), and a photodiode array (PDA) detector (Waters Corporation). An Acquity BEH C18 column (100 × 2.1 mm i.d., 1.7 µm; Waters Corporation) maintained at 30 °C was used as stationary phase. Eluent A was 0.3% acetic acid in water and eluent B was acetonitrile, the following gradient elution was applied (flow rate: 0.3 mL/min): 5.0–100.0% B (0.0–11.0 min), 100.0–5.0% B (11.0–11.5 min), 5% B (11.5–15.0 min). The injection volume was 5 µL and chromatograms were recorded at 200–400 nm. The chromatograms acquired at the UV absorption maxima of each compound were used for data evaluation.
Stock solutions (10 mM in methanol) were diluted with the defined buffer (pH 7.4 for the PAMPA-BBB and pH 6.8 for the PAMPA-GI assays) to obtain the donor solutions (composition: 594.0 μL buffer + 6.0 μL stock solution). The buffers were prepared as follows: pH = 6.8: 20.2 g Na2HPO4 ∙ 7H2O and 3.4 g NaH2PO4 ∙ H2O dissolved in distilled water to achieve the final volume of 1000.0 mL, pH adjustment with 0.5 M NaOH or 0.5 M HCl; pH = 7.4: one PBS tablet (Phosphate Buffered Saline, pH 7.4; Sigma Aldrich) dissolved in 200.0 mL distilled water. Donor solutions were filtered through Phenex-RC 15 mm, 0.2 μm syringe filters (Gen-Lab Ltd., Budapest, Hungary).

[9] = in vitro cytostatic activity, Alamar Blue (resazurin) assay, MDA-MB 231 breast carcinoma cell culture, read-out: IC50 (µM) MDA-MB 231
[10] = in vitro cytostatic activity, Alamar Blue (resazurin) assay, A2058 melanoma cell culture, read-out: IC50 (µM) A2058
[11] = in vitro cytostatic activity, Alamar Blue (resazurin) assay, HT-29 colon carcinoma cell culture, read-out: IC50 (µM) HT-29
[12] = Chlorocebus sabaeus, Vero C1008, in vitro cytostatic activity, Alamar Blue assay, Vero E6 non-tumorous kidney cells, read-out: IC50 (µM) VERO E6 Non Tumorous
[13] = MDA-MB-231, read-out: IC50 (µM) MDA-MB 231
[14] = A2058, read-out: IC50 (µM) A2058
[15] = HT-29, read-out: IC50 (µM) HT-29
[16] = Chlorocebus sabaeus, Vero C1008, read-out: IC50 (µM) VERO E6 Non Tumorous

Row | IC50 [5, 9] [µM] | IC50 [6, 10] [µM] | IC50 [7, 11] [µM] | Molecule | logPe PAMPA-BBB (n = 9) [2] | logPe PAMPA-GI (n = 9) [3] | effect on the tumor cell lines [4] | IC50 [1, 12] [µM] | other results
1 | – | – | – | CC1OC(Oc2c(-c3ccc(O)c(O)c3)oc3cc(O)cc(O)c3c2=O)C(O)C(O)C1O (stereo not shown) [Compound 106, quercetin-3-O-rhamnoside (quercitrin)] | not detected in the acceptor phase | not detected in the acceptor phase | no effect | – | IC50 ([1]; Chlorocebus sabaeus, Vero C1008, read-out: IC50 (cytostatic activity) on the Vero E6 cells): 15.9 µM
2 | > 100 | > 100 | > 100 | O=C(OCC1OC(OC2CCC(=O)c3ccc(O)c(O)c32)C(O)C(O)C1O)c1cc(O)c(O)c(O)c1 [Compound 92, 1,2,3,4-tetrahydro-7,8-dihydroxy-4-oxonaphthalen-1-yl-6-O-[(3,4,5-trihydroxyphenyl)carbonyl]-β-D-glucopyranoside] | not detected in the acceptor phase | not detected in the acceptor phase | no effect | 61.1 ± 5.3 | –
3 | > 100 | > 100 | > 100 | CC1OC(Oc2c(-c3cc(O)c(O)c(O)c3)oc3cc(O)cc(O)c3c2=O)C(O)C(O)C1O (stereo not shown) [myricetin-3-O-rhamnoside (86)] | – | – | – | 3.7 ± 0.7 | –
4 | > 100 | > 100 | > 100 | O=c1c(OC2OCC(O)C(O)C2O)c(-c2ccc(O)c(O)c2)oc2cc(O)cc(O)c12 (stereo not shown) [quercetin-3-O-xyloside (74)] | – | – | – | > 100 | –
5 | – | – | – | CC1OC(Oc2c(-c3ccc(O)c(O)c3)oc3cc(O)cc(O)c3c2=O)C(O)C(O)C1O (stereo not shown) [quercetin-3-O-rhamnoside (106)] | – | – | – | – | IC50 [5, 13]: > 100 µM; IC50 [6, 14]: > 100 µM; IC50 [7, 15]: > 100 µM; IC50 [1, 16]: 15.9 ± 0.7 µM
6 | > 100 | > 100 | > 100 | O=c1oc2c(O)c(O)cc3c(=O)oc4c(O)c(O)cc1c4c23 [Compound 143, ellagic acid] | less than −6.0 | less than −6.0 | – | > 100 | inhibition at 100 µM ([7]; read-out: % inhibition at 100 µM, 100 µM, HT-29 cell culture): 33%; IC50 ([7]; HT-29 colon carcinoma, treatment overnight, then 72 h culture, Alamar Blue, read-out: IC50 on HT-29 cell culture): 12.1 µM; IC50 (cytostatic activity) on the Vero E6 cells ([1]; Vero E6 non-tumorous kidney cells, selectivity): not cytostatic; Papp at 4 h, 100 µM [2]: 0.224 ×10⁻⁶ cm/s; Papp at 4 h, 100 µM [3]: 0.741 ×10⁻⁶ cm/s
7 | – | – | – | COc1cccc2c1C(=O)c1c(O)c3c(c(O)c1C2=O)C[C@@](O)(C(C)=O)C[C@@H]3O[C@H]1C[C@H](N)[C@H](O)[C@H](C)O1 [Daunomycin, daunomycin, reference compound] | – | – | – | – | IC50 [5, 13]: 0.7 ± 0.1 µM; IC50 [6, 14]: 0.9 ± 0.1 µM; IC50 [7, 15]: 0.2 ± 0.05 µM; IC50 [1, 16]: 1.1 ± 0.05 µM; IC50 ([4]; read-out: IC50 value (50% inhibition) in all cell lines): 0.2 to 1.1 µM
8 | – | – | – | myricetin-3-O-rhamnoside (myricitrin) [Compound 86] | – | – | no effect | – | IC50 ([1]; Vero E6 non-tumorous kidney cells, selectivity, read-out: IC50 (cytostatic activity) on the Vero E6 cells): 3.7 µM

Row | Molecule | IC50 [5, 9] [µM] | IC50 [6, 10] [µM] | IC50 [7, 11] [µM] | logPe PAMPA-BBB (n = 9) [2] | logPe PAMPA-GI (n = 9) [3] | effect on the tumor cell lines [4] | IC50 [1, 12] [µM] | other results
9 | O=C1C=CC(=O)c2c(O)cccc21 [Compound 141, juglone] | 9.9 ± 0.7 | 13.5 ± 0.7 | 0.53 ± 0.1 | – | – | – | 3.7 ± 0.7 | IC50 ([6]; A2058 melanoma, treatment overnight, then 72 h culture, Alamar Blue, read-out: IC50 (antiproliferative effect) on the melanoma culture): 15.5 µM; Papp at 4 h, 100 µM [2]: 77.6 ×10⁻⁶ cm/s; Papp at 4 h, 100 µM [3]: 38.9 ×10⁻⁶ cm/s; additional minor compounds appeared in the aqueous solutions prepared for the PAMPA experiments [8]: < 10%
10 | O=C(O)c1cc(O)c(O)c(O)c1 [Compound 14, gallic acid] | 49.8 ± 3.5 | 57.2 ± 4.7 | 71.2 ± 7.9 | not detected in the acceptor phase | not detected in the acceptor phase | – | 49.9 ± 2.8 | –
